Results on one molecule are retold here after US6448201B1, “Benzoylcyclohexanediones and benzoylpyrazoles, their preparation, and their use as herbicides and plant growth regulators” (Aventis CropScience GmbH, priority 1999, dated 2002).

In turn, `CS(=O)(=O)c1ccc(C(=O)C2C(=O)CCCC2=O)c(Cl)c1OCc1cc(-c2ccccc2)no1` [1.70, 2-(2-Chloro-3-(3-phenylisoxazol-5-yl)methoxy-4-methylsulfonylbenzoyl)cyclohexane-1,3-dione] showed a melting point of 72 to 78 °C.
